Laboratory results published in PubChem BioAssay AID1963982 (Molecular Pharmacology Branch, DTP, NCI, 2024).

Tested on: 313798-341-R-J2-PDC spheroids, viability
Test: Anticancer human tumor 313798-341-R-J2-PDC patient-derived cervical squamous cell carcinoma cell line growth inhibition [PI3K]
Conditions: spheroids with HUVEC and MSC; for IC50: curve of first compound; for viability, T/C: stronger effect = lower value; active means viability on the fitted dose curve at most 10% of control; inactive means the rest
Text: Combinatorial screen of targeted agents with the PI3K inhibitors inavolisib, alpelisib, duvelisib, and copanlisib in multi-cell type tumor spheroids
A high-throughput screen of multi-cell type tumor spheroids was designed to identify active combinations of targeted small molecules and PI3K pathway inhibitors. Complex spheroids include a stromal component modeled by human endothelial cells (HUVEC) and fibroblasts modeled by human mesenchymal stem cells (MSCs). The concentration ranges selected for each drug and investigational agent were based upon clinically achievable concentrations if the clinical Cmax of the agent was known.
Compounds. The drugs and investigational agents: inavolisib (NSC800729), alpelisib (NSC765974), duvelisib (NSC772469), copanlisib (NSC816437), ipatasertib (NSC767898), afuresertib (NSC778305), talazoparib (NSC767125), sapanisertib (NSC764658), selumetinib (NSC741078), tovorafenib (DAY101, NSC766906), vemurafenib (NSC761431), ravoxertinib (NSC781343), sotorasib (NSC818433), MRTX1133 (NSC 836407), abemaciclib (NSC 768073), palbociclib (NSC758247), venetoclax (NSC 766270), SY5609 (NSC837396), enzalutamide (NSC755605), and darolutamide (NSC825331), were obtained from the National Cancer Institute (NCI) Developmental Therapeutics Program Chemical Repository. The FDA-approved anticancer drug set is available from the NCI Developmental Therapeutics Program. […] The stock solutions were prepared in dimethyl sulfoxide (DMSO, Sigma-Aldrich, St. Louis, MO, cat. D2650) at 800-fold the tested concentration and stored at -70 degrees C prior to their use. All drugs and investigational agents were tested over a range starting from a high concentration at or near the clinical Cmax and decreasing in half-log increments. If the clinical Cmax for an agent had not been determined, the highest concentration tested was 10 microM.
Cell Culture. All cells were maintained in an incubator at 37 degrees C and 5% CO2 with 95% humidity. The PDC lines were cultured according to standard operating procedures established by the NCI PDMR (https://pdmr.cancer.gov/sops/default.htm). All PDCs were thawed and cultured in Matrigel-coated flasks prepared with a working solution of 1X Ham's F-12 nutrient mix, without supplementation (Invitrogen, Waltham, MA, cat. 11765054), 100 U/mL penicillin-streptomycin (Invitrogen, cat. 15140122), and 2.5% Matrigel (Corning Inc., Corning, NY, cat. 354248) for the first three passages. The 354836-022-R-J1-PDC, 475296-252-R-J1-PDC, and 997726-040-R-J2-PDC lines were cultured in 6A media, which includes advanced DMEM/F-12 (Thermo Fisher Scientific, cat. 12634028), 10 mM HEPES (Thermo Fisher Scientific, cat. 15630080), 1X GlutaMAX supplement (Thermo Fisher Scientific, cat. 35050061), 0.1 mg/mL primocin (InvivoGen, San Diego, CA, cat. ant-pm-2), 10% defined fetal bovine serum, heat inactivated (HyClone Laboratories Inc., Logan, UT, cat. SH30070.03HI), 50% L-WRN conditioned media (ATCC, cat. CRL-3276), 1.25 mM N-Acetyl-L-cysteine (Sigma-Aldrich, cat. A9165), 10 mM nicotinamide (Sigma-Aldrich, cat. N0636), 1X B-27 supplement (Thermo Fisher Scientific, cat. 17504044), 1X N-2 supplement (Thermo Fisher Scientific, cat. 17502048), and 10 microM Y-27632 dihydrochloride (Tocris Bioscience, Bristol, United Kingdom, cat. 1254). The 624824-186-R-J2-PDC line was cultured in 6C/Colon 1B media, which includes all 6A media components plus 50 ng/mL human EGF recombinant protein (Thermo Fisher Scientific, cat. PHG0311). […]

[1] = second compound 0.0316 µM, first compound 0.0316 µM
[2] = second compound 0.0316 µM, first compound 0.1 µM
[3] = second compound 0.0316 µM, first compound 0.316 µM
[4] = second compound 0.0316 µM, first compound 1 µM
[5] = second compound 0.1 µM, first compound 0.0316 µM
[6] = second compound 0.1 µM, first compound 0.1 µM
[7] = second compound 0.1 µM, first compound 0.316 µM
[8] = second compound 0.1 µM, first compound 1 µM
[9] = second compound 0.316 µM, first compound 0.0316 µM
[10] = second compound 0.316 µM, first compound 0.1 µM
[11] = second compound 0.316 µM, first compound 0.316 µM
[12] = second compound 0.316 µM, first compound 1 µM
[13] = second compound 1 µM, first compound 0.0316 µM
[14] = second compound 1 µM, first compound 0.1 µM
[15] = second compound 1 µM, first compound 0.316 µM
[16] = second compound 1 µM, first compound 1 µM
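Further: spheroids exposed to compounds for seven days.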

CC(C)NCC(C(=O)N1CCN(c2ncnc3c2C(C)CC3O)CC1)c1ccc(Cl)cc1 (centres undefined) + COc1c(OCCCN2CCOCC2)ccc2c3n(c(=NC(=O)c4cnc(N)nc4)nc12)CCN3
1.62 µM: IC50 (second compound 0.0316 µM)
2.42 µM: IC50 (second compound 0.00316 µM)
< 0.0316 µM: IC50 (second compound 0.1 µM) | IC50 (second compound 0.316 µM) | IC50 (second compound 1 µM)
1.21 µM: IC50 (second compound 0.01 µM)
active: viability, T/C [16] 13.1% | viability, T/C (second compound 1 µM, first compound 3.16 µM) 10.6% | viability, T/C (second compound 1 µM, first compound 10 µM) 5.77%
inactive: viability, T/C (second compound 0.00316 µM, first compound 0.0316 µM) 97.3% | viability, T/C (second compound 0.00316 µM, first compound 0.1 µM) 99% | viability, T/C (second compound 0.00316 µM, first compound 0.316 µM) 83% | viability, T/C (second compound 0.00316 µM, first compound 1 µM) 64.3% | viability, T/C (second compound 0.00316 µM, first compound 3.16 µM) 46.9% | viability, T/C (second compound 0.00316 µM, first compound 10 µM) 33% | viability, T/C (second compound 0.01 µM, first compound 0.0316 µM) 85.9% | viability, T/C (second compound 0.01 µM, first compound 0.1 µM) 97.1% | viability, T/C (second compound 0.01 µM, first compound 0.316 µM) 81.1% | viability, T/C (second compound 0.01 µM, first compound 1 µM) 52% | viability, T/C (second compound 0.01 µM, first compound 3.16 µM) 39.2% | viability, T/C (second compound 0.01 µM, first compound 10 µM) 29.8% | viability, T/C [1] 74.8% | viability, T/C [2] 73.6% | viability, T/C [3] 59.9% | viability, T/C [4] 63.2% | viability, T/C (second compound 0.0316 µM, first compound 3.16 µM) 33% | viability, T/C (second compound 0.0316 µM, first compound 10 µM) 26.1% | viability, T/C [5] 42.6% | viability, T/C [6] 38.6% | viability, T/C [7] 36.9% | viability, T/C [8] 34% | viability, T/C (second compound 0.1 µM, first compound 3.16 µM) 23.9% | viability, T/C (second compound 0.1 µM, first compound 10 µM) 18.6% | viability, T/C [9] 15.2% | viability, T/C [10] 18.4% | viability, T/C [11] 15.9% | viability, T/C [12] 17.6% | viability, T/C (second compound 0.316 µM, first compound 3.16 µM) 16.3% | viability, T/C (second compound 0.316 µM, first compound 10 µM) 8.87% | viability, T/C [13] 10.8% | viability, T/C [14] 11.6% | viability, T/C [15] 9.87%

CCN1CCN(Cc2ccc(Nc3ncc(F)c(-c4cc(F)c5nc(C)n(C(C)C)c5c4)n3)nc2)CC1 + CC(Nc1ncnc2nc[nH]c12)c1cc2cccc(Cl)c2c(=O)n1-c1ccccc1
> 1 µM: IC50 (second compound 0.0316 µM) | IC50 (second compound 0.1 µM) | IC50 (second compound 0.316 µM) | IC50 (second compound 1 µM) | IC50 (second compound 3.16 µM) | IC50 (second compound 10 µM)
inactive: viability, T/C (second compound 0.0316 µM, first compound 0.00316 µM) 98.9% | viability, T/C (second compound 0.0316 µM, first compound 0.01 µM) 98.3% | viability, T/C [1] 114% | viability, T/C [2] 114% | viability, T/C [3] 96% | viability, T/C [4] 123% | viability, T/C (second compound 0.1 µM, first compound 0.00316 µM) 105% | viability, T/C (second compound 0.1 µM, first compound 0.01 µM) 110% | viability, T/C [5] 103% | viability, T/C [6] 113% | viability, T/C [7] 102% | viability, T/C [8] 115% | viability, T/C (second compound 0.316 µM, first compound 0.00316 µM) 94.5% | viability, T/C (second compound 0.316 µM, first compound 0.01 µM) 100% | viability, T/C [9] 92.3% | viability, T/C [10] 96.9% | viability, T/C [11] 104% | viability, T/C [12] 107% | viability, T/C (second compound 1 µM, first compound 0.00316 µM) 104% | viability, T/C (second compound 1 µM, first compound 0.01 µM) 95.3% | viability, T/C [13] 99.8% | viability, T/C [14] 101% | viability, T/C [15] 104% | viability, T/C [16] 109% | viability, T/C (second compound 3.16 µM, first compound 0.00316 µM) 103% | viability, T/C (second compound 3.16 µM, first compound 0.01 µM) 94.6% | viability, T/C (second compound 3.16 µM, first compound 0.0316 µM) 98.1% | viability, T/C (second compound 3.16 µM, first compound 0.1 µM) 99.8% | viability, T/C (second compound 3.16 µM, first compound 0.316 µM) 108% | viability, T/C (second compound 3.16 µM, first compound 1 µM) 89.8% | viability, T/C (second compound 10 µM, first compound 0.00316 µM) 100% | viability, T/C (second compound 10 µM, first compound 0.01 µM) 91.5% | viability, T/C (second compound 10 µM, first compound 0.0316 µM) 83.9% | viability, T/C (second compound 10 µM, first compound 0.1 µM) 85.8% | viability, T/C (second compound 10 µM, first compound 0.316 µM) 82.4% | viability, T/C (second compound 10 µM, first compound 1 µM) 89.5%
